From patent US20240425517A1, “NOVEL COMPOUND FOR DEGRADATION OF TARGET PROTEIN OR POLYPEPTIDE BY POLYUBIQUITINATION” (PRAZER THERAPEUTICS INC., priority 2021, published 2024)
Counter-ions that a name gives are not always drawn.

target: T1, BRD4 proteins (Homo sapiens, UniProt O60885); experiment: Degradation of BRD4 protein in MM.1S cell lines (Western blot densitometry); format: cell-based; conditions: MM.1S cells, 10 μM, 24 hours
T1 construct: endogenous in cells; host or cells: MM.1S
Procedure, shortened: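 MM.1S cells in RPMI-1640 with 10% FBS were treated with each degrader at 10 μM for 24 h. RIPA lysates were analysed by SDS-PAGE/Western blot with β-actin as reference, and BRD4 band densitometry was scored as reduction <40% (+), 40-<70% (++) or ≥70% (+++).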

Row | SMILES | BRD4 degrading capacity (%)
1 | Cc1sc2c(c1C)C(c1ccc(Cl)cc1)=N[C@@H](CC(=O)NCCCCCCCNC(=O)c1ccc(-c3ccc(C#CCN)cc3)o1)c1nnc(C)n1-2.Cl [5-111′, (S)-5-(4-(3-aminoprop-1-yn-1-yl)phenyl)-N-(7-(2-(4-(4-chlorophenyl)-2,3,9-trimethyl-6H-thieno[3,2-f][1,2,4]triazolo[4,3-a][1,4]diazepin-6-yl)acetamido)heptyl)furan-2-carboxamide hydrochloride] | ++ (the degrading capacity was reduced by 40% to 70% (exclusive of 70))
2 | COC(=O)c1ccc(NC(=O)CCCOC(=O)C[C@@H]2N=C(c3ccc(Cl)cc3)c3c(sc(C)c3C)-n3c(C)nnc32)cc1C#CCN [5-115′, methyl (S)-2-(3-aminoprop-1-yn-1-yl)-4-(4-(2-(4-(4-chlorophenyl)-2,3,9-trimethyl-6H-thieno[3,2-f][1,2,4]triazolo[4,3-a][1,4]diazepin-6-yl)acetoxy)butanamido)benzoate hydrochloride] | +++ (the degrading capacity was reduced by 70% or more)
3 | COC(=O)c1ccc(C#CCNC(=O)C[C@@H]2N=C(c3ccc(Cl)cc3)c3c(sc(C)c3C)-n3c(C)nnc32)cc1C#CCN.Cl [5-116′, methyl (S)-2-(3-aminoprop-1-yn-1-yl)-4-(3-(2-(4-(4-chlorophenyl)-2,3,9-trimethyl-6H-thieno[3,2-f][1,2,4]triazolo[4,3-a][1,4]diazepin-6-yl)acetamido)prop-1-yn-1-yl)benzoate hydrochloride] | +++ (the degrading capacity was reduced by 70% or more)
4 | Cc1sc2c(c1C)C(c1ccc(Cl)cc1)=N[C@@H](CC(=O)N1CCC(CNc3ccc(C(=O)O)c(C#CCN)c3)CC1)c1nnc(C)n1-2 [5-139′, (S)-2-(3-aminoprop-1-yn-1-yl)-4-(((1-(2-(4-(4-chlorophenyl)-2,3,9-trimethyl-6H-thieno[3,2-f][1,2,4]triazolo[4,3-a][1,4]diazepin-6-yl)acetyl)piperidin-4-yl)methyl)amino)benzoic acid trifluoroacetic acid] | + (the degrading capacity of each BRD4 degrader was reduced by less than 40%)
5 | COC(=O)c1ccc(C(=O)N2CCN(C(=O)C[C@@H]3N=C(c4ccc(Cl)cc4)c4c(sc(C)c4C)-n4c(C)nnc43)CC2)cc1C#CCN.Cl [5-140′, methyl (S)-2-(3-aminoprop-1-yn-1-yl)-4-(4-(2-(4-(4-chlorophenyl)-2,3,9-trimethyl-6H-thieno[3,2-f][1,2,4]triazolo[4,3-a][1,4]diazepin-6-yl)acetyl)piperazine-1-carbonyl)benzoate hydrochloride] | +++ (the degrading capacity was reduced by 70% or more)
6 | COC(=O)c1ccc(NC(=O)CCCNC(=O)C[C@@H]2N=C(c3ccc(Cl)cc3)c3c(sc(C)c3C)-n3c(C)nnc32)cc1C#CCNC(C)=O [5-148′, methyl (S)-2-(3-acetamidoprop-1-yn-1-yl)-4-(4-(2-(4-(4-chlorophenyl)-2,3,9-trimethyl-6H-thieno[3,2-f][1,2,4]triazolo[4,3-a][1,4]diazepin-6-yl)acetamido)butanamido)benzoate] | + (the degrading capacity of each BRD4 degrader was reduced by less than 40%)
7 | COC(=O)c1ccc(NC(=O)CCCN(C)C(=O)C[C@@H]2N=C(c3ccc(Cl)cc3)c3c(sc(C)c3C)-n3c(C)nnc32)cc1C#CCN.Cl [5-149′, methyl (S)-2-(3-aminoprop-1-yn-1-yl)-4-(4-(2-(4-(4-chlorophenyl)-2,3,9-trimethyl-6H-thieno[3,2-f][1,2,4]triazolo[4,3-a][1,4]diazepin-6-yl)-N-methylacetamido)butanamido)benzoate hydrochloride] | +++ (the degrading capacity was reduced by 70% or more)
8 | COC(=O)c1ccc(N(C)C(=O)CCCNC(=O)C[C@@H]2N=C(c3ccc(Cl)cc3)c3c(sc(C)c3C)-n3c(C)nnc32)cc1C#CCN.Cl [5-150′, methyl (S)-2-(3-aminoprop-1-yn-1-yl)-4-(4-(2-(4-(4-chlorophenyl)-2,3,9-trimethyl-6H-thieno[3,2-f][1,2,4]triazolo[4,3-a][1,4]diazepin-6-yl)acetamido)-N-methylbutanamido)benzoate hydrochloride] | +++ (the degrading capacity was reduced by 70% or more)
9 | COC(=O)c1ccc(N(C)C(=O)C2CCN(C(=O)C[C@@H]3N=C(c4ccc(Cl)cc4)c4c(sc(C)c4C)-n4c(C)nnc43)CC2)cc1C#CCN [5-152′, methyl (S)-2-(3-aminoprop-1-yn-1-yl)-4-(1-(2-(4-(4-chlorophenyl)-2,3,9-trimethyl-6H-thieno[3,2-f][1,2,4]triazolo[4,3-a][1,4]diazepin-6-yl)acetyl)-N-methylpiperidine-4-carboxamido)benzoate trifluoroacetic acid] | +++ (the degrading capacity was reduced by 70% or more)
10 | COC(=O)c1ccc(C(=O)N(C)C2CCN(C(=O)C[C@@H]3N=C(c4ccc(Cl)cc4)c4c(sc(C)c4C)-n4c(C)nnc43)CC2)cc1C#CCN [5-153′, methyl (S)-2-(3-aminoprop-1-yn-1-yl)-4-((1-(2-(4-(4-chlorophenyl)-2,3,9-trimethyl-6H-thieno[3,2-f][1,2,4]triazolo[4,3-a][1,4]diazepin-6-yl)acetyl)piperidin-4-yl)(methyl)carbamoyl)benzoate trifluoroacetic acid] | +++ (the degrading capacity was reduced by 70% or more)
11 | COC(=O)c1ccc(NC(=O)C2CCN(C(=O)C[C@@H]3N=C(c4ccc(Cl)cc4)c4c(sc(C)c4C)-n4c(C)nnc43)CC2)cc1C#CCNS(N)(=O)=O [5-154′, methyl (S)-4-(1-(2-(4-(4-chlorophenyl)-2,3,9-trimethyl-6H-thieno[3,2-f][1,2,4]triazolo[4,3-a][1,4]diazepin-6-yl)acetyl)piperidine-4-carboxamido)-2-(3-(sulfamoylamino)prop-1-yn-1-yl)benzoate trifluoroacetic acid] | +++ (the degrading capacity was reduced by 70% or more)
12 | COC(=O)c1ccc(NC(=O)C2CCN(C(=O)C[C@@H]3N=C(c4ccc(Cl)cc4)c4c(sc(C)c4C)-n4c(C)nnc43)CC2)cc1C#CC1(N)CC1 [5-155′, methyl (S)-2-((1-aminocyclopropyl)ethynyl)-4-(1-(2-(4-(4-chlorophenyl)-2,3,9-trimethyl-6H-thieno[3,2-f][1,2,4]triazolo[4,3-a][1,4]diazepin-6-yl)acetyl)piperidine-4-carboxamido)benzoate trifluoroacetic acid] | ++ (the degrading capacity was reduced by 40% to 70% (exclusive of 70))
13 | COC(=O)c1ccc(NC(=O)C2CCN(C(=O)C[C@@H]3N=C(c4ccc(Cl)cc4)c4c(sc(C)c4C)-n4c(C)nnc43)CC2)cc1C#CCNC(=O)OC(C)OC(=O)C(C)C (stereo partly drawn) [5-157′, methyl 4-(1-(2-((S)-4-(4-chlorophenyl)-2,3,9-trimethyl-6H-thieno[3,2-f][1,2,4]triazolo[4,3-a][1,4]diazepin-6-yl)acetyl)piperidine-4-carboxamido)-2-(3-(((1-(isobutyryloxy)ethoxy)carbonyl)amino)prop-1-yn-1-yl)benzoate] | +++ (the degrading capacity was reduced by 70% or more)
